Assay results published in patent US20130065818A1, “Arylamide Compounds And Compositions And Uses Thereof” (POLYMEDIX, priority 2006, published 2013).
In brackets after ≈: the same amount, converted by molar mass. Where two headings read alike, the source gives them in different places.

Experiments:
[1] = system: Staphylococcus epidermidis (Coagulase-negative Staphylococcus) fluoroquinolone-resistant; experiment: MIC, 25 ocular isolates, broth microdilution (Example 8); assay type: cell-based
Protocol: (§1) • Mueller-Hinton Broth in tubes was inoculated with 25 ocular isolates of Staphylococcus aureus fluoroquinolone-susceptible, Staphylococcus aureus fluoroquinolone-resistant, Staphylococcus epidermidis (Coagulase-negative Staphylococcus) fluoroquinolone-susceptible, Staphylococcus epidermidis (Coagulase-negative Staphylococcus) fluoroquinolone-resistant, Pseudomonas aeruginosa and Serratia marcescens, plus two controls (Staphylococcus aureus and E. coli) and incubated at 37° C. overnight on a shaker set at 250 rpm.
(§2) On the day of testing, a 640 μg/ml (1280 μg/ml for Serratia marcescens and Pseudomonas aeruginosa) concentration was prepared from a 1% stock solution in 0.01% acetic acid, 0.2% BSA in polypropylene tubes.
(§3) Serial doubling dilutions in 0.01% acetic acid, 0.2% BSA in 96 well polypropylene plates, which are used as reservoirs for the inoculation of the test plates, were carried out to obtain serial dilutions of test agents at 10 times the required test concentrations: 640, 320, 160, 80, 40, 20, 10, 5, 2.5, 1.25, and 0.625 μg/ml (1280, 640, 320, 160, 80, 40, 20, 10, 5, 2.5, and 1.25 μg/ml for Serratia marcescens and Pseudomonas aeruginosa).
(§4) Ten μl of diluted 10×test agents was added to each well of one row of the 96 well polypropylene plates from column 2 to column 12 (column 1 is a control for bacteria alone, with no peptide). Test agent concentrations in columns 2-12 were as follows: 64, 32, 16, 8, 4, 2, 1, 0.5, 0.25, 0.125, and 0.0625 μg/ml (128, 64, 32, 16, 8, 4, 2, 1, 0.5, 0.25, and 0.125 μg/ml for Serratia marcescens and Pseudomonas aeruginosa). The same peptide was in each of the 8 rows. One plate contained dilutions of one test agent and 8 bacterial isolates.
(§5) On the day of testing, the overnight bacterial broth cultures of Staphylococcus aureus fluoroquinolone-susceptible, Staphylococcus aureus fluoroquinolone-resistant, Staphylococcus epidermidis (Coagulase-negative Staphylococcus) fluoroquinolone-susceptible, Staphylococcus epidermidis (Coagulase-negative Staphylococcus) fluoroquinolone-resistant, Serratia marcescens, and Pseudomonas aeruginosa, plus two controls (Staphylococcus aureus and E. coli) were diluted in 5 ml of trypticase soy broth to yield turbidity equal to a 0.5 McFarland standard. The final inoculum for MIC testing for Staphylococcus aureus fluoroquinolone-susceptible, Staphylococcus aureus fluoroquinolone-resistant, Staphylococcus epidermidis (Coagulase-negative Staphylococcus) fluoroquinolone-susceptible, Staphylococcus epidermidis (Coagulase-negative Staphylococcus) fluoroquinolone-resistant, Serratia marcescens, and Pseudomonas aeruginosa was achieved by placing 0.05 ml of the turbidity adjusted sample to 5 ml of Mueller-Hinton broth.
(§6) Ninety μl of the bacterial suspensions was dispensed in each well from column 1 to column 12. Each bacterial isolate was placed in one row of a 96 well polypropylene plate containing the test agents. The plates were placed on shaker at 15 minutes at room temperature, and then incubated at 37° C. overnight. MICs were determined visually as the lowest concentration of drug that inhibits visible bacterial growth.

[2] = system: Serratia marcescens; experiment: as above; assay type: cell-based
Protocol: as §1, §2, §3, §4, §5, §6

N=C(N)NCCCCC(=O)Nc1cc(C(F)(F)F)cc(NC(=O)c2cc(C(=O)Nc3cc(C(F)(F)F)cc(NC(=O)CCCCNC(=N)N)c3O[C@@H]3CCNC3)ncn2)c1O[C@@H]1CCNC1 [Oligomer 4]
MIC, sorted list for MIC50 and MIC90 Determinations (QRSE-A) ([1]; 25 isolates sorted ascending, Row 1-25, <0.0625 was Replaced with 0.03125): 0.25 µg/mL
MIC50 ([1]; 25 isolates, Row 13): 0.125 µg/mL (≈ 0.133 µM)
MIC90 ([1]; 25 isolates, Row 22): 0.25 µg/mL (≈ 0.267 µM)
Range of MICs ([1]; 25 isolates, Summary of Results, <0.0625 was Replaced with 0.03125): 0.03125 to 0.25 µg/mL
MIC ([1]; Staphylococcus epidermidis, 25 ocular isolates, read-out: Median MIC): ≤ 0.25 µg/mL
MIC ([1]; Staphylococcus epidermidis, isolate 1—E515, read-out: MIC): 0.125 µg/mL (≈ 0.133 µM)
MIC ([1]; Staphylococcus epidermidis, isolate 2—E514, read-out: MIC): < 0.0625 µg/mL
MIC ([1]; Staphylococcus epidermidis, isolate 3—E513, read-out: MIC): 0.125 µg/mL (≈ 0.133 µM)
MIC ([1]; Staphylococcus epidermidis, isolate 4—E510, read-out: MIC): < 0.0625 µg/mL
MIC ([1]; Staphylococcus epidermidis, isolate 5—E509, read-out: MIC): 0.125 µg/mL (≈ 0.133 µM)
MIC ([1]; Staphylococcus epidermidis, isolate 6—E508, read-out: MIC): 0.125 µg/mL (≈ 0.133 µM)
MIC ([1]; Staphylococcus epidermidis, isolate 7—E505, read-out: MIC): 0.125 µg/mL (≈ 0.133 µM)
MIC ([1]; Staphylococcus epidermidis, isolate 8—E503, read-out: MIC): 0.125 µg/mL (≈ 0.133 µM)
MIC ([1]; Staphylococcus epidermidis, isolate 9—E502, read-out: MIC): 0.125 µg/mL (≈ 0.133 µM)
MIC ([1]; Staphylococcus epidermidis, isolate 10—E499, read-out: MIC): 0.125 µg/mL (≈ 0.133 µM)
MIC ([1]; Staphylococcus epidermidis, isolate 11—E498, read-out: MIC): 0.125 µg/mL (≈ 0.133 µM)
MIC ([1]; Staphylococcus epidermidis, isolate 12—E494, read-out: MIC): < 0.0625 µg/mL
MIC ([1]; Staphylococcus epidermidis, isolate 13—E493, read-out: MIC): 0.125 µg/mL (≈ 0.133 µM)
MIC ([1]; Staphylococcus epidermidis, isolate 14—E485, read-out: MIC): 0.125 µg/mL (≈ 0.133 µM)
MIC ([1]; Staphylococcus epidermidis, isolate 15—E487, read-out: MIC): 0.125 µg/mL (≈ 0.133 µM)
MIC ([1]; Staphylococcus epidermidis, isolate 16—E486, read-out: MIC): < 0.0625 µg/mL
MIC ([1]; Staphylococcus epidermidis, isolate 17—E480, read-out: MIC): 0.125 µg/mL (≈ 0.133 µM)
MIC ([1]; Staphylococcus epidermidis, isolate 18—E475, read-out: MIC): 0.25 µg/mL (≈ 0.267 µM)
MIC ([1]; Staphylococcus epidermidis, isolate 19—E471, read-out: MIC): 0.125 µg/mL (≈ 0.133 µM)
MIC ([1]; Staphylococcus epidermidis, isolate 20—E458, read-out: MIC): 0.125 µg/mL (≈ 0.133 µM)
MIC ([1]; Staphylococcus epidermidis, isolate 21—E452, read-out: MIC): 0.25 µg/mL (≈ 0.267 µM)
MIC ([1]; Staphylococcus epidermidis, isolate 22—E450, read-out: MIC): 0.125 µg/mL (≈ 0.133 µM)
MIC ([1]; Staphylococcus epidermidis, isolate 23—E440, read-out: MIC): 0.25 µg/mL (≈ 0.267 µM)
MIC ([1]; Staphylococcus epidermidis, isolate 24—E446, read-out: MIC): 0.125 µg/mL (≈ 0.133 µM)
MIC ([1]; Staphylococcus epidermidis, isolate 25—E444, read-out: MIC): 0.25 µg/mL (≈ 0.267 µM)
MIC ([1]; Staphylococcus epidermidis, n=25 per group, read-out: Median MIC): 0.125 µg/mL (≈ 0.133 µM)
MIC50 ([1]; Staphylococcus epidermidis, 25 isolates, Summary of Results, read-out: MIC50): 0.125 µg/mL (≈ 0.133 µM)
MIC90 ([1]; Staphylococcus epidermidis, 25 isolates, Summary of Results, read-out: MIC90): 0.25 µg/mL (≈ 0.267 µM)
MIC ([1]; Staphylococcus epidermidis, 25 isolates, Summary of Results, read-out: Median MIC): 0.125 µg/mL (≈ 0.133 µM)
MIC50 ([1]; n=25 per group): 0.125 µg/mL (≈ 0.133 µM)
MIC90 ([1]; n=25 per group): 0.25 µg/mL (≈ 0.267 µM)
Range of MICs ([1]; n=25 per group): 0.03125 to 0.25 µg/mL
MIC50 ([2]; 25 isolates, Row 13, >128 was Replaced with 256): 8 µg/mL (≈ 8.54 µM)
MIC90 ([2]; 25 isolates, Row 22, >128 was Replaced with 256): 32 µg/mL (≈ 34.2 µM)
Range of MICs ([2]; 25 isolates, Summary of Results, >128 was Replaced with 256): 0.25 to 32 µg/mL
MIC ([2]; Serratia marcescens, 25 ocular isolates, read-out: Median MIC): 8 µg/mL (≈ 8.54 µM)
MIC ([2]; Serratia marcescens, isolate 1—K1681, read-out: MIC): 32 µg/mL (≈ 34.2 µM)
MIC ([2]; Serratia marcescens, isolate 2—K1674, read-out: MIC): 32 µg/mL (≈ 34.2 µM)
MIC ([2]; Serratia marcescens, isolate 3—K1558, read-out: MIC): 4 µg/mL (≈ 4.27 µM)
MIC ([2]; Serratia marcescens, isolate 4—K1538, read-out: MIC): 16 µg/mL (≈ 17.1 µM)
MIC ([2]; Serratia marcescens, isolate 5—K1503, read-out: MIC): 32 µg/mL (≈ 34.2 µM)
MIC ([2]; Serratia marcescens, isolate 6—K1216, read-out: MIC): 4 µg/mL (≈ 4.27 µM)
MIC ([2]; Serratia marcescens, isolate 7—K1496, read-out: MIC): 8 µg/mL (≈ 8.54 µM)
MIC ([2]; Serratia marcescens, isolate 8—K1481, read-out: MIC): 2 µg/mL (≈ 2.13 µM)
MIC ([2]; Serratia marcescens, isolate 9—K1470, read-out: MIC): 32 µg/mL (≈ 34.2 µM)
MIC ([2]; Serratia marcescens, isolate 10—K1468, read-out: MIC): 2 µg/mL (≈ 2.13 µM)
MIC ([2]; Serratia marcescens, isolate 11—K1467, read-out: MIC): 32 µg/mL (≈ 34.2 µM)
MIC ([2]; Serratia marcescens, isolate 12—K1462, read-out: MIC): 16 µg/mL (≈ 17.1 µM)
MIC ([2]; Serratia marcescens, isolate 13—K1461, read-out: MIC): 8 µg/mL (≈ 8.54 µM)
MIC ([2]; Serratia marcescens, isolate 14—K1413, read-out: MIC): 16 µg/mL (≈ 17.1 µM)
MIC ([2]; Serratia marcescens, isolate 15—K1402, read-out: MIC): 0.25 µg/mL (≈ 0.267 µM)
MIC ([2]; Serratia marcescens, isolate 16—K1357, read-out: MIC): 1 µg/mL (≈ 1.07 µM)
MIC ([2]; Serratia marcescens, isolate 17—K1351, read-out: MIC): 0.5 µg/mL (≈ 0.534 µM)
MIC ([2]; Serratia marcescens, isolate 18—K1327, read-out: MIC): 8 µg/mL (≈ 8.54 µM)
MIC ([2]; Serratia marcescens, isolate 19—K1321, read-out: MIC): 8 µg/mL (≈ 8.54 µM)
MIC ([2]; Serratia marcescens, isolate 20—K1315, read-out: MIC): 16 µg/mL (≈ 17.1 µM)
MIC ([2]; Serratia marcescens, isolate 21—K1306, read-out: MIC): 8 µg/mL (≈ 8.54 µM)
MIC ([2]; Serratia marcescens, isolate 22—K1290, read-out: MIC): 8 µg/mL (≈ 8.54 µM)
MIC ([2]; Serratia marcescens, isolate 23—K1265, read-out: MIC): 8 µg/mL (≈ 8.54 µM)
MIC ([2]; Serratia marcescens, isolate 24—K1263, read-out: MIC): 8 µg/mL (≈ 8.54 µM)
MIC ([2]; Serratia marcescens, isolate 25—K1239, read-out: MIC): 8 µg/mL (≈ 8.54 µM)
MIC ([2]; Serratia marcescens, n=25 per group, read-out: Median MIC): 8 µg/mL (≈ 8.54 µM)
MIC50 ([2]; Serratia marcescens, 25 isolates, Summary of Results, >128 was Replaced with 256, read-out: MIC50): 8 µg/mL (≈ 8.54 µM)
MIC90 ([2]; Serratia marcescens, 25 isolates, Summary of Results, >128 was Replaced with 256, read-out: MIC90): 32 µg/mL (≈ 34.2 µM)
MIC ([2]; Serratia marcescens, 25 isolates, Summary of Results, >128 was Replaced with 256, read-out: Median MIC): 8 µg/mL (≈ 8.54 µM)
MIC50 ([2]; n=25 per group): 8 µg/mL (≈ 8.54 µM)
MIC90 ([2]; n=25 per group): 32 µg/mL (≈ 34.2 µM)
Range of MICs ([2]; n=25 per group): 0.25 to 32 µg/mL
